Measurements published in paper PMC6687188, “Novel lactate dehydrogenase inhibitors with in vivo efficacy against Cryptosporidium parvum” (PLoS Pathogens, 2019).
Where two headings read alike, the source gives them in different places.

Assays:
Cryptosporidium parvum [1] = assay: Histopathology of distal small intestine of infected mice (denuded villi); assay type: in vivo; conditions: 9 days post-infection
Description: Gamma interferon knockout mice (B6.129S7-Ifng), 8 weeks of age, were purchased from Charles River, USA. The care and use of the mice was done following the guidelines of protocol number 17024 approved by the University of Illinois at Urbana-Champaign, USA. The animals were allowed to acclimatize for 1 week before experiments commenced. Stock solutions of recombinant CpLDH inhibitors reconstituted in DMSO were diluted in sterile distilled water to reduce the final amount of DMSO in the solution to less than 1% (v/v) before administering them to mice. Prior to testing the anti-Cryptosporidium effect of the inhibitors in mice, the tolerability of each inhibitor was tested by oral gavage using varying dosages (100–2000 mg/kg body weight) of each inhibitor in groups of mice (three mice for each dose) daily for 7 days. Mice were observed daily for signs of toxicity including changes from normal physical activity, respiration, body temperature, feeding, posture, fur condition or occurrence of death. […] Mice were allocated to groups as follows: “Infected plus inhibitor treatment”; “Infected minus inhibitor treatment”; “Uninfected minus inhibitor treatment” and “Infected plus paromomycin treatment”. Each group contained at least three mice. Each mouse in the infection groups received 5,000 C. parvum oocysts (resuspended in 50 μl of PBS) by oral gavage. Mice were housed individually in cages lined with sterile gauze as bedding. One day post-infection (PI), daily oral gavage administration of recombinant CpLDH inhibitor or paromomycin commenced and continued for a total of 7 days. Untreated mice received an equivalent volume of sterile distilled water (containing DMSO equivalent to the amount administered in the inhibitor-treated group) by oral gavage. […] An equivalent volume of PBS containing a cocktail of penicillin (100 units/ml), streptomycin (100 μg/ml), chloramphenicol (34 μg/ml) and amphotericin (0.25 μg/ml) was added to the fecal samples and stored at 4°C until use for quantification of C. parvum genomic DNA load. […]

Cryptosporidium parvum [2] = assay: In vitro anti-Cryptosporidium assay in HCT-8 cells (immunofluorescence); assay type: cell-based
Description: HCT-8 cells were cultured in supplemented RPMI-1640 medium in 96-well plates. When the cells were confluent, old medium was replaced with fresh medium. To one set of wells, varying concentrations of recombinant CpLDH inhibitors (reconstituted in DMSO and diluted in RPMI medium) were added, while another set was left without inhibitors. Paromomycin was used as a positive control drug reconstituted in distilled sterile water. Then, 4 x 10^4 freshly excysted sporozoites were added to each well and incubated at 37°C with 5% CO2. After 2 h incubation, varying concentrations of CpLDH inhibitors were added to the set of infected cells that were not treated initially. Control infected cells without inhibitors, but with added DMSO volumes equivalent to those used in the wells with inhibitors, were included. The cells were maintained in culture for a total of either 48 h or 72 h and processed for immunofluorescence assay as previously described. Briefly, medium was decanted and the cells fixed with methanol-acetic acid (9:1) for 2 minute at room temperature. The cells were rehydrated and permeabilized by two successive washes with buffer (0.1% Triton X-100, 0.35 M NaCl, 0.13 M Tris-base, pH 7.6) and blocked with 5% normal goat serum, followed by staining with antibody to C. parvum (SporoGlo; Waterborn, Inc.) overnight at 4°C. The stained cells were washed twice with PBS, followed by water, and then imaged with an inverted fluorescence microscope. Fluorescence quantification was done using ImageJ version 1.37v software (NIH).

[3] = Tolerability in mice, daily oral gavage for 7 days; assay type: in vivo; conditions: daily oral gavage over 7 days, no toxicity signs
Description: (§1) Gamma interferon knockout mice (B6.129S7-Ifng), 8 weeks of age, were purchased from Charles River, USA. The care and use of the mice was done following the guidelines of protocol number 17024 approved by the University of Illinois at Urbana-Champaign, USA. The animals were allowed to acclimatize for 1 week before experiments commenced. Stock solutions of recombinant CpLDH inhibitors reconstituted in DMSO were diluted in sterile distilled water to reduce the final amount of DMSO in the solution to less than 1% (v/v) before administering them to mice. Prior to testing the anti-Cryptosporidium effect of the inhibitors in mice, the tolerability of each inhibitor was tested by oral gavage using varying dosages (100–2000 mg/kg body weight) of each inhibitor in groups of mice (three mice for each dose) daily for 7 days. Mice were observed daily for signs of toxicity including changes from normal physical activity, respiration, body temperature, feeding, posture, fur condition or occurrence of death. […] An equivalent volume of PBS containing a cocktail of penicillin (100 units/ml), streptomycin (100 μg/ml), chloramphenicol (34 μg/ml) and amphotericin (0.25 μg/ml) was added to the fecal samples and stored at 4°C until use for quantification of C. parvum genomic DNA load. […]

Cryptosporidium parvum [4] = assay: In vivo anti-Cryptosporidium efficacy: real-time PCR of C. parvum DNA in feces of infected Gamma interferon knockout mice
Description: as §1, with “mice.” for “mice. Prior to testing the anti-Cryptosporidium effect of the inhibitors in mice, the tolerability of each inhibitor was tested by oral gavage using varying dosages (100–2000 mg/kg body weight) of each inhibitor in groups of mice (three mice for each dose) daily for 7 days. Mice were observed daily for signs of toxicity including changes from normal physical activity, respiration, body temperature, feeding, posture, fur condition or occurrence of death.”
Genomic DNA was extracted from individual fecal samples collected from mice at different days as described above. […] Quantification of the amount of C. parvum 18s rRNA gene (GenBank accession number AF164102) was performed essentially as described previously. […] The PCR product was fractionated on agarose gel, extracted using the QIAquick Gel extraction kit (Qiagen, USA), and the concentration measured by Nanodrop Spectrophotometer (Fisher, USA). Ten-fold serial dilutions of the extracted DNA fragment were made and used as quantification standards for real-time PCR. […]

HCT-8 cells [5] = assay: Compound cytotoxicity assay (WST-1 cell proliferation reagent); conditions: read-out: CYTOTOXICITY IC50; HCT-8 cells, 24 h
Description: A colorimetric assay using the cell proliferation reagent WST-1 (Roche, USA) for the quantification of cell viability was performed. […] When the cells were confluent, the old medium was replaced with fresh medium with or without varying concentrations of chemical compound. After 24 h of culture, 10 μl of the cell proliferation reagent WST-1, (for quantification of cell viability) was added to each well, mixed and the plates incubated for 1 h at 37 C with 5% CO2 in the dark. […] Three independent assays were performed and the dose–response curves of the means of triplicate assays were generated using GraphPad PRISM software to derive the half maximal inhibitory concentration (IC50) of compounds in HCT-8 cells.

[6] = molecular target: recombinant CpLDH protein (Cryptosporidium parvum, UniProt Q9GT92, F198L/K295E/R251K)
Cryptosporidium parvum [7] = tested on: Cryptosporidium parvum; design: method as in PMID 18591280; conditions: read-out: IC50 for inhibition of C. parvum growth in HCT-8 cells; cited from earlier work
HCT-8 cells [8] = tested on: HCT-8 cells; design: method as in PMID 10882689, PMID 18591280; conditions: concentrations above 1000 μM; cited from earlier work

Compound	reduction of percentage of denuded intestinal villi compared to infected untreated mice (Cryptosporidium parvum [1])	intestinal histopathology (in words) (Cryptosporidium parvum [1]; distal small intestine)	C. parvum proliferation in vitro, initial screen (in words) (Cryptosporidium parvum [2]; 48 h post-infection, concentration at least 50% lower than cytotoxicity IC50)	IC50 (Cryptosporidium parvum [2]; compound added at the time of infection, HCT-8 cells, read-out: IC50, inhibition of C. parvum growth at 72 h p.i.)	IC50 (Cryptosporidium parvum [2]; read-out: IC50, inhibition of C. parvum growth at 48 h p.i. (2 h), compound added 2 h post-infection, HCT-8 cells)	IC50 (Cryptosporidium parvum [2]; read-out: IC50, inhibition of C. parvum growth at 48 h p.i., compound added at the time of infection, HCT-8 cells)	IC50 (Cryptosporidium parvum [2]; read-out: IC50, inhibition of C. parvum growth at 72 h p.i. (2 h), compound added 2 h post-infection, HCT-8 cells)	highest tolerable dose in mice [3]	lower C. parvum DNA load in feces compared to infected untreated (Cryptosporidium parvum [4]; 250, 500 and 1000 mg/kg, day 3 until day 8)	IC50 (HCT-8 cells [5])	MEAN CpLDH INHIBITION (%) [6]	IC50 ([6]; read-out: IC50, inhibition of recombinant CpLDH activity)	IC50 (Cryptosporidium parvum [7])	IC50 (Cryptosporidium parvum [2]; Cryptosporidium parvum, HCT-8, 48 h post-infection, positive control, time of addition not specified, read-out: IC50, inhibition of C. parvum growth)	IC50 (Cryptosporidium parvum [2]; Cryptosporidium parvum, HCT-8, 72 h post-infection, positive control, time of addition not specified, read-out: IC50, inhibition of C. parvum growth)	reduction of shedding of C. parvum in mice feces compared to untreated infected mice (Cryptosporidium parvum [4]; day 7 post-infection, NSC158011 400 mg/kg, paromomycin 100 mg/kg)	cytotoxicity in HCT-8 cells (HCT-8 cells [8])
O=C1c2ccccc2C(=O)c2c(O)c(O)cc(O)c21 [NSC10447]	≥ 7 fold	prevented villous atrophy and maintained the integrity of the intestinal mucosa	significantly (P < 0.05) inhibit C. parvum proliferation	83.6 µM	79.5 µM	72.7 µM	95.2 µM	1000 mg/kg	at least 50%	290 µM	39.07%	46.3 µM					
NC[C@@H]1O[C@H](O[C@H]2[C@@H](O)[C@H](O[C@@H]3[C@@H](O)[C@H](N)C[C@H](N)[C@H]3O[C@H]3O[C@H](CO)[C@@H](O)[C@H](O)[C@H]3N)O[C@@H]2CO)[C@H](N)[C@@H](O)[C@@H]1O [paromomycin, reference compound]	≥ 7 fold												711 µM	450 µM	400 µM	about 3000 fold	negligible
